From paper PMC12430169, “Notoginsenoside R1, a Metabolite from Panax notoginseng, Prevents Paclitaxel-Induced Peripheral Neuropathic Pain in Mice” (Molecules, 2025) come the findings set out here.

What is called inhibition is the share of the control response that was lost under treatment.

The assay addresses T1, human recombinant monoacylglycerol lipase (MAGL) (Homo sapiens, UniProt Q99685).
T1 construct: gene MGLL
T1 sequence (Q99685 1-303): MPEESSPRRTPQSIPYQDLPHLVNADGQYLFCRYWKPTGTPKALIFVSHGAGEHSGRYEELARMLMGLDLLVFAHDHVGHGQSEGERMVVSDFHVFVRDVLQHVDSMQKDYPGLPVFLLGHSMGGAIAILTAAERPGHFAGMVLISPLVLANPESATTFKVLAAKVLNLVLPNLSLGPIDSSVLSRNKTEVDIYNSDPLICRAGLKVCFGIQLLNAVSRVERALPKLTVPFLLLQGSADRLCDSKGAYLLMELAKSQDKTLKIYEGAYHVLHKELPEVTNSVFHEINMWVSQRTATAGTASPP
Nature of the assay: colorimetric MAGL inhibitor screening kit (Cayman), 4-nitrophenyl acetate hydrolysis at […] nm; […] inhibition at […] at […] min, […] at […] min; inhibition falls with concentration. The class given is biochemical.

For the compound `CC(C)=CCC[C@](C)(O[C@@H]1O[C@H](CO)[C@@H](O)[C@H](O)[C@H]1O)[C@H]1CC[C@]2(C)[C@@H]1[C@H](O)C[C@@H]1[C@@]3(C)CC[C@H](O)C(C)(C)[C@@H]3[C@@H](O[C@@H]3O[C@H](CO)[C@@H](O)[C@H](O)[C@H]3O[C@@H]3OC[C@@H](O)[C@H](O)[C@H]3O)C[C@]12C` [NGR1, Notoginsenoside R1], the inhibition at 1 µM turned out to be 41%.
